We go through seven compounds from patent publication US7812177B2, “Potassium channel opener having benzofuroindole skeleton” (Anygen Co., Ltd., priority 2005, dated 2010).

The target of series [1] is BKCa channel (Homo sapiens, UniProt Q12791). To be noted: similar assay system, same concentration (20 μM); cited from earlier work.
Series [2] deals with T1, rSlo channel (Rattus norvegicus, UniProt Q62976).
T1 construct: expressed in transfected cells; host or cells: Xenopus laevis oocytes
Put plainly: Concentration-dependence of channel opening, compound applied to the extracellular side of membrane patches. The class given is cell-based. To be noted: extracellular application. The text has this: FIG. 6 illustrates concentration-dependence activity of compound 8 on BKCa channel. FIG. 6A illustrates concentration-dependence activity of rSlo channel. FIG. 6B illustrates concentration-dependence activity of rSlo channel combined with human β1. FIG. 6C illustrates concentration-dependence activity of rSlo channel combined with rat β4 subunit.
(§1) We then measured the concentration-dependence of compound 8 of the present invention. […] Although we were not able to obtain a concentration of compound 8 higher than 300 μM because of its solubility in water, we noticed that compound 8-induced current increases reached plateau levels at around 100 μM. […] We also measured the effects of compound 8 using inside-out patch configuration to determine whether this compound also affects channel activity from the intracellular side. The intracellular Ca^2+ concentration was fixed at 2 μM to activate rSlo channels, and different concentrations of compound 8 were added to the intracellular side of the membrane.

The nature of series [3]: Solubility in water (highest obtainable concentration). The class given is physicochemical. The settings on record: read-out: highest obtainable concentration because of solubility in water. The protocol:
as §1

Series [4] addresses T2, cloned α subunit of rat BKCa channels, rSlo (Rattus norvegicus, UniProt Q62976).
T2 construct: expressed in transfected cells; host or cells: Xenopus laevis oocytes
Description: Excised outside-out voltage clamp recording, fold increase of BKCa channel currents by extracellularly applied compounds. It counts as cell-based. To be noted: extracellular treatment at 20 μM; outside-out patch, Xenopus laevis oocytes expressing rSlo. The procedure:
FIG. 3 illustrates relative fold-increase of BKCa channel activity by extracellularly applied benzofuroindole analogues of present invention. Bar graphs represent fold increases in BKCa channel currents evoked by extracellular treatment of various compounds at 20 μM.
The biological activity of compounds 7˜23 to open BKCa channels and increase the BKCa channel currents was determined by using excised outside-out voltage clamp recording from Xenopus laevis oocytes expressing cloned α subunit of rat BKCa channels, rSlo.

Series [5] deals with T1, rSlo channel. Put plainly: Concentration dependence on macroscopic rSlo channel activity expressed in Xenopus oocytes, Hill fit. It counts as cell-based. The procedure:
FIG. 5 illustrates concentration-dependence of compound 22 on BKCa channel. Data points were fitted with Hill equation.
We performed experiments to determine the concentration dependence for the effect of compound 22 on macroscopic rSlo channel activity expressed in Xenopus oocytes.
Currents were recorded from excised outside-out patches before and after the addition of seven different concentrations of compound 22, from 0 to 300 μM. Channel activity of rSlo was elicited after patch excision with 2 μM intracellular Ca^2+ and increased rapidly with the addition of compound 22. Membrane potential was held at −120 mV and stepped to 50 mV for 50 ms. Relative current differences were determined from the currents of control activated with 2 μM of intracellular Ca^2+ and voltage at 50 mV, normalized with control currents and the obtained data points were fitter with a Hill equation (FIG. 5).

Series [6] concerns the target T1, rSlo channel. Put plainly: Potentiating effect on rSlo channels at various intracellular Ca2+ concentrations, outside-out patch. It counts as cell-based. To be noted: 20 μM extracellular. The protocol:
FIG. 4 illustrates potency of extracellularly applied compound 22 on rSlo channels in various intracellular Ca^2+ concentrations. Representative raw-traces were shown at different intracellular Ca^2+ concentrations. Intracellular Ca^2+ concentration was increased from Ca^2+-free (A), 0.5 μM (B), 1 μM (C) and 2 μM (D). The concentration of compound 22 was 20 μM on the extracellular side.
To investigate the potentiating effect of compound 22 on rSlo channels at various intracellular Ca^2+ concentrations, rSlo channels were activated in different concentrations of intracellular Ca^2+.
Excised outside-out patch configurations were obtained by making a gigaohm seal, rupturing the membrane pulling the pipette from oocytes. Both of the bath and pipette contained symmetrical 124 mM K^+ ions. Voltage pulses were applied to activate rSlo channel currents from −120 mV to 140 mV in 10 mV increments and intracellular Ca^2+ concentrations were used to activate rSlo channel from 0 (Ca^2+-free solution was to chelate with 5 mM EGTA) to 2 μM in intracellular side.
The representative raw-traces of rSlo channel activated by membrane voltages and intracellular Ca^2+ (FIG. 4). rSlo channel currents were recorded before and after the addition of 20 μM of compound 22.

Entries after “also recorded” stand apart in the source; their conditions may differ. Bounds are passed on as bounds.

T1 sequence (Q62976 whole entry): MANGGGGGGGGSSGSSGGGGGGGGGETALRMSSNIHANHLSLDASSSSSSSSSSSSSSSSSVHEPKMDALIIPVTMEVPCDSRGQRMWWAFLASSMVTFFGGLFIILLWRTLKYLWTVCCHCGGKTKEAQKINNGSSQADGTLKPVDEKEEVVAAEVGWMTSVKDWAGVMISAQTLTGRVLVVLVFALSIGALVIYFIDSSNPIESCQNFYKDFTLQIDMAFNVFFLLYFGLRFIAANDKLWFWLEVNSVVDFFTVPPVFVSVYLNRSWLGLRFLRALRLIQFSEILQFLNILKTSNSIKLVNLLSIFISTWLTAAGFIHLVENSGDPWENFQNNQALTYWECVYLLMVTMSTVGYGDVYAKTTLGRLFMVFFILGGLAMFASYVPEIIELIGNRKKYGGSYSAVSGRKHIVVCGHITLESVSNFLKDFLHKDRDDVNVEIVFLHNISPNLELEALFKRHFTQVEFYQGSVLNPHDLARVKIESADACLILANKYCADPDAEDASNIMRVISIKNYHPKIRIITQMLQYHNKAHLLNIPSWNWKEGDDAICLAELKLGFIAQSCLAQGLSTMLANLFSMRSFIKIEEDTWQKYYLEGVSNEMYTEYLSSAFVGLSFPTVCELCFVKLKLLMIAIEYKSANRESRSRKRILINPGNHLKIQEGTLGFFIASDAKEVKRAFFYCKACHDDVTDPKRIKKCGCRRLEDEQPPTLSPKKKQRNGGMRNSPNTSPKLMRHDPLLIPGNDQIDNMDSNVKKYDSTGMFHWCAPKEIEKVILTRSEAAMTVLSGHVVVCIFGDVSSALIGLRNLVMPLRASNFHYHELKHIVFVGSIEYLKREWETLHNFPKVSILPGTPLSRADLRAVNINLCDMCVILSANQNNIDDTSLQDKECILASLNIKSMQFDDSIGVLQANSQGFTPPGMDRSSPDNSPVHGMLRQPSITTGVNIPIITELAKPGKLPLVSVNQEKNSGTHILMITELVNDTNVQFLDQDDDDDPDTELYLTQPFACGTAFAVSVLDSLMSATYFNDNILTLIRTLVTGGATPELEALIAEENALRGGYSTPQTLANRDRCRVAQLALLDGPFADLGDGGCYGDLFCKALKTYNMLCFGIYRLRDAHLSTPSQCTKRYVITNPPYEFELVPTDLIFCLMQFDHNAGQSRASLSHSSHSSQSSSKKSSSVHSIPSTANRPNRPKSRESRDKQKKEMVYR
T2 sequence (Q62976 whole entry): as above
Chain of BKCa channel (Q12791 whole entry): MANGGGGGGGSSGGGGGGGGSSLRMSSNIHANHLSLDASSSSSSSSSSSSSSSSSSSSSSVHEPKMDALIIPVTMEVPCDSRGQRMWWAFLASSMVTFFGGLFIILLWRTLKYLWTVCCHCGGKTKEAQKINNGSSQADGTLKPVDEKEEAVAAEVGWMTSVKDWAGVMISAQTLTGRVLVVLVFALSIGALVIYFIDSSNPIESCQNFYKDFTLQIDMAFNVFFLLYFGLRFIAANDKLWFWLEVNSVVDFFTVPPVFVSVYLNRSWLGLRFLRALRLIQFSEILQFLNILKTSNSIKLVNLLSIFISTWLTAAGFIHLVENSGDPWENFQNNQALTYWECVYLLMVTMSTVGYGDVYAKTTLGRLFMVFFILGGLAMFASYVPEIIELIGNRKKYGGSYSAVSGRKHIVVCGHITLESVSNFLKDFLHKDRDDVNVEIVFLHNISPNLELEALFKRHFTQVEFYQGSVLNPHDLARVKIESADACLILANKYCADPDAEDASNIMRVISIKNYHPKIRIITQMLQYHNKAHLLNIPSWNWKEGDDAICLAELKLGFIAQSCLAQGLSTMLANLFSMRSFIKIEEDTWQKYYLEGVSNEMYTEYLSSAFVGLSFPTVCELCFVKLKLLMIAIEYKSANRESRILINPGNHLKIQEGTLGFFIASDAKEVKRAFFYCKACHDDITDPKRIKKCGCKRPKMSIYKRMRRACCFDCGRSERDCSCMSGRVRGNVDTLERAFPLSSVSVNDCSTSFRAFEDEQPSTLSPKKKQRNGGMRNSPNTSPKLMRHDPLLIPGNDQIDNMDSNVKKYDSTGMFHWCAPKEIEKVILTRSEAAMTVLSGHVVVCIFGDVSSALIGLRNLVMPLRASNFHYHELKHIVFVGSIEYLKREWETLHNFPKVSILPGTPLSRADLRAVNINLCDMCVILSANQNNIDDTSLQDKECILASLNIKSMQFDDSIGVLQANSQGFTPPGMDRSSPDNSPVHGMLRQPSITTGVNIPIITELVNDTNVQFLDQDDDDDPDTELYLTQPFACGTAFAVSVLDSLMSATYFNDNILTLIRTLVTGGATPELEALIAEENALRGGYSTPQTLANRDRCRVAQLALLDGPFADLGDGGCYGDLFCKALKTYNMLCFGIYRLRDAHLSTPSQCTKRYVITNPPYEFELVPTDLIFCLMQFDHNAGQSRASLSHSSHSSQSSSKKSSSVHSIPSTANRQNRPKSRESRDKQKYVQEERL

`COc1ccc(Cl)cc1[C@]1(F)C(=O)Nc2cc(C(F)(F)F)ccc21` [BMS-204352]: the reported fold increase entry in series [1] is given as “around 1.5”.
Turning to `COc1ccc(Cl)cc1-c1c(CCO)c(=O)[nH]c2ccc(C(F)(F)F)cc12` [Compound 2], the reported fold increase in series [1] is reported as ~3.7.
Take `O=C(O)c1cccc2c1[nH]c1c3ccc(C(F)(F)F)cc3oc21` [Compound 8, 7-Trifluoromethyl-10H-benzo[4,5]furo[3,2-b]indole-1-carboxylic acid]: the response in series [2] was half-maximal at 8.9 ± 1.5 µM (EC50). The solubility in series [3] is ≤ 300 µM.
Take `FC(F)(F)c1ccc2c(c1)oc1c3ccc(Cl)c(Cl)c3[nH]c21` [Compound 18, 1,2-Dichloro-7-trifluoromethyl-10H-benzo[4,5]furo[3,2-b]indole]: the “fold increase of BKCa channel currents” value in series [4] was “activity near to the basal level”.
Regarding `FC(F)(F)c1ccc2c(c1)oc1c2[nH]c2cc(Cl)cc(Cl)c21` [Compound 19, 2,4-Dichloro-7-trifluoromethyl-10H-benzo[4,5]furo[3,2-b]indole], the “fold increase of BKCa channel currents” value in series [4] is reported as “activity near to the basal level”.
Take `O=C(O)c1ccc(Cl)c2c1[nH]c1c3ccc(C(F)(F)F)cc3oc12` [Compound 22, 4-Chloro-7-trifluoromethyl-10H-benzo[4,5]furo[3,2-b]indole-1-carboxylic acid]: the “fold increase of BKCa channel currents” value in series [4] is reported as “more than 6 fold”. Moreover, the “effect on rSlo current over concentration range” value in series [5] (50 nM to 300 μM) was “enhanced rSlo current in a concentration dependent manner”. Also, the Kd in series [5] (2 μM intracellular Ca2+, step to 50 mV, N=5, read-out: Kd, apparent dissociation constant (Hill fit)) was 4.01 ± 0.75 µM. Also, the “reversibility of enhanced rSlo current by washout” value in series [6] (all tested intracellular Ca2+ concentrations) is on record as “could be removed by washout”. Besides, the “effect on rSlo channel current” value in series [6] (intracellular Ca2+ from Ca2+-free to 2 μM) was “markedly significant effects on rSlo channel current; also recorded: intracellular Ca^2+ concentrations do not affect the potentiating effect”.
On to `O=C(O)c1cc(Cl)cc2c1[nH]c1c3ccc(C(F)(F)F)cc3oc21` [Compound 23, 3-Chloro-7-trifluoromethyl-10H-benzo[4,5]furo[3,2-b]indole-1-carboxylic acid], for which the “fold increase of BKCa channel currents” value in series [4] is “close but not better channel opening activity than compound 22”.
